The text below walks through data of patent US6683162B2, “Targeted alpha particle therapy using actinium-255 conjugates” (Sloan Kettering Institute of Cancer Research, priority 2000, dated 2004).

The subject of series [1] is human HL60 leukemia cells. To be noted: Bi-213 construct, S.A. 8.4 Ci/g; cited from earlier work.
A further series deals with leukemia cells. Conditions: cumulative doses of up to 3.7 GBq (100 mCi); cited from earlier work.
Series [2] in a line: Stability of 225Ac complexes of simple chelants: yttrium challenge and C-25 column elution. The method, then: Approximately, 200 μCi of ^225Ac solution was mixed with 10 μl of 50 mM of a ligand solution (such as DOTA) and pH was adjusted to about 6-6.5 with 33 μl of 3 M ammonium acetate. The reaction was kept in a water bath at 37° C. for completion in 2 hours. Reaction yield was monitored using 10 mM NaOH/9% NaCl solvent. Then, 10 μl of 77.5 mM Yttrium chloride solution was added to react with excess chelants for 30 minutes. There are two reasons for adding the 1.5 fold excess Yttrium: 1) if ^225Ac complex is not stable, Yttrium will replace ^225Ac c, and 2) Yttrium will react with chelants and make a final solution at metal excess. The excess metal will be held on a C-25 purification column and the radiometal complex can pass through the column. Therefore, the purified solution should contain a 1:1 metal to ligand ratio for the stability studies.
Each reaction solution was purified through a 1 ml C-25 column using a 5 ml of normal saline as eluting buffer. The first 2.5 ml elution was collected for the stability study. The activity in the eluate and the activity retaining on the column were measured using a dose calibrator 20 hours after purification.

Series [3] can be described thus: Long-term in vitro stability of 225Ac-DOTA complex in 25% human serum (ITLC). Conditions: 37° C., after 1 month. In kind it is in vitro ADME. As to the method:
100% human serum (Sigma Chemical Co., St. Louis, Mo.), 100% mouse serum and 25% human serum albumin (Swiss Red Cross, Bern, Switzerland) was used to determine stability of the ^225 Ac complexes and conjugates. Aliquots in serum are mixed with diethylenetriaminepentaacetic acid (DPTA) (Aldrich Chemical Co., Milwaukee, Wis.). ITLC was utilized with either a 10 mM EDTA or 10 mM NaOH/9% NaCl solvent system and ITLC SG strips (Gelman Science Inc., Ann Arbor, Mich.) to assess the complexation and conjugation efficiency of the chelants. The ITLC strips were analyzed by gas ionization detection with an Ambis 4000 (Ambis, San Diego, Calif.).
Long-term in vitro stability of the ^225Ac-DOTA complex was tested by mixing 100 μl of the purified sample with 900 μl of 25% human serum. The ^225Ac-DOTA and solution was incubated at 37° C. and sampled periodically over the course of 30 days. The samples were analyzed by ITLC.

A short description of series [4]: Liver accumulation of free 225Ac (acetate) injected into a mouse. In kind it is in vivo. The method, then:
In contrast to these two [225Ac]DOTA-IgG constructs, free ^225Ac (acetate) injected into a mouse rapidly accumulates in the liver: 40%, 40%, 65% at 24 h, 48 h, and 120 h, respectively.

[5] abbreviates: after yttrium addition, C-25 column.

Where two headings read alike, the source gives them in different places.

As for “[Bi-213]HuM195: 213Bi alpha-particle emitting HuM195 antibody construct, comparator”, in series [1], the LD50 is on record as 200,000 pCi/mL. In addition, in the series with leukemia cells, the “tumorocidal activity for leukemia cells” value is recorded as “major tumorocidal activity”.

Regarding `O=C(O)CCN1CCN(CCC(=O)O)CCN(CCC(=O)O)CCN(CCC(=O)O)CC1` [DOTPA], in series [2] (setting [5]), the “stability of 225Ac complex (all 225Ac retained on the column)” value (“stability of 225Ac complex” below) is “unstable”.

`O=C(O)CN1CCCN(CC(=O)O)CCN(CC(=O)O)CCCN(CC(=O)O)CC1` [TETA]: the “stability of 225Ac complex” value in series [2] (setting [5]) is listed as “unstable”.

For the molecule `O=C(O)CN(CCN(CC(=O)O)CC(=O)O)CCN(CC(=O)O)CC(=O)O` (225Ac complex, metal not drawn) [DTPA], the “stability of 225Ac complex” value in series [2] was “unstable”.

The molecule `O=C([O-])CN1CCN(CC(=O)[O-])CCN(CC(=O)[O-])CCN(CC(=O)[O-])CC1.[225Ac+3]` [225Ac-DOTA] returned a metal remains complexed in series [3] of 85%. In series [2] (after […] excess yttrium, 1 ml C-25 column, normal saline, activity measured 20 hours after purification), the “percentage of 225Ac activity eluted from the column” value is 98.7%.

In the case of `CC(=O)[O-].CC(=O)[O-].CC(=O)[O-].[225Ac+3]` [free 225Ac (acetate)], the “accumulation in the liver” value in series [4] (24 h) came to 40%; in series [4] (48 h) it was 40%; in series [4] (120 h), 65%.

With `O=C(O)CCN1CCCN(CCC(=O)O)CCN(CCC(=O)O)CCCN(CCC(=O)O)CC1` [TETPA], the “stability of 225Ac complex” value in series [2] (setting [5]) is “unstable”.
